≈ marks a conversion by molar mass, not a printed value.
Columns and labels:
MCF7 [1] = assay: Antiproliferative activity against human MCF7 cells assessed as inhibition of cell proliferation incubated for 24 hrs by trypan blue assay; type: functional, cell-based; conditions: MCF7, 24 h
HeLa [2] = assay: Cytotoxicity against human HeLa cells assessed as reduction of cell viability incubated for 48 hrs by MTT assay; type: functional, cell-based
HL-60 = assay: Induction of apoptosis in human HL-60 cells at 5 uM incubated for 24 hrs by Annexin V-FITC/PI based flow cytometric analysis; type: functional
[3] = Growth inhibition of human HBC4 cells by sulforhodamine B assay; type: functional
[4] = Growth inhibition of human BSY1 cells by sulforhodamine B assay; type: functional; conditions: BSY-1
[5] = Growth inhibition of human HBC5 cells by sulforhodamine B assay; type: functional
MCF7 [6] = assay: Growth inhibition of human MCF7 cells by sulforhodamine B assay; type: functional
[7] = Growth inhibition of human […] cells by sulforhodamine B assay; type: functional
U-251 = assay: Growth inhibition of human U-251 cells by sulforhodamine B assay; type: functional
SF-268 = assay: Growth inhibition of human SF-268 cells by sulforhodamine B assay; type: functional
SF-295 = assay: Growth inhibition of human SF-295 cells by sulforhodamine B assay; type: functional
SF-539 = assay: Growth inhibition of human SF-539 cells by sulforhodamine B assay; type: functional
SNB-75 = assay: Growth inhibition of human SNB-75 cells by sulforhodamine B assay; type: functional
SNB-78 = assay: Growth inhibition of human SNB-78 cells by sulforhodamine B assay; type: functional
HCC 2998 = assay: Growth inhibition of human HCC 2998 cells by sulforhodamine B assay; type: functional
KM12 = assay: Growth inhibition of human KM12 cells by sulforhodamine B assay; type: functional
HT-29 = assay: Growth inhibition of human HT-29 cells by sulforhodamine B assay; type: functional
HCT-15 = assay: Growth inhibition of human HCT-15 cells by sulforhodamine B assay; type: functional
HCT-116 = assay: Growth inhibition of human HCT-116 cells by sulforhodamine B assay; type: functional
NCI-H23 = assay: Growth inhibition of human NCI-H23 cells by sulforhodamine B assay; type: functional
NCI-H226 = assay: Growth inhibition of human NCI-H226 cells by sulforhodamine B assay; type: functional
NCI-H522 = assay: Growth inhibition of human NCI-H522 cells by sulforhodamine B assay; type: functional
NCI-H460 = assay: Growth inhibition of human NCI-H460 cells by sulforhodamine B assay; type: functional
A549 = assay: Growth inhibition of human A549 cells by sulforhodamine B assay; type: functional
DMS-273 = assay: Growth inhibition of human DMS-273 cells by sulforhodamine B assay; type: functional
LOX IMVI = assay: Growth inhibition of human LOX IMVI cells by sulforhodamine B assay; type: functional
OVCAR-3 = assay: Growth inhibition of human OVCAR-3 cells by sulforhodamine B assay; type: functional
OVCAR-4 = assay: Growth inhibition of human OVCAR-4 cells by sulforhodamine B assay; type: functional
OVCAR-5 = assay: Growth inhibition of human OVCAR-5 cells by sulforhodamine B assay; type: functional
OVCAR-8 = assay: Growth inhibition of human OVCAR-8 cells by sulforhodamine B assay; type: functional
SK-OV-3 = assay: Growth inhibition of human SK-OV-3 cells by sulforhodamine B assay; type: functional
RXF 631 = assay: Growth inhibition of human RXF 631 cells by sulforhodamine B assay; type: functional
ACHN = assay: Growth inhibition of human ACHN cells by sulforhodamine B assay; type: functional
St-4 = assay: Growth inhibition of human St-4 cells by sulforhodamine B assay; type: functional
MKN-1 = assay: Growth inhibition of human MKN-1 cells by sulforhodamine B assay; type: functional
MKN-7 = assay: Growth inhibition of human MKN-7 cells by sulforhodamine B assay; type: functional
MKN-28 = assay: Growth inhibition of human MKN-28 cells by sulforhodamine B assay; type: functional
MKN-45 = assay: Growth inhibition of human MKN-45 cells by sulforhodamine B assay; type: functional
MKN-74 = assay: Growth inhibition of human MKN-74 cells by sulforhodamine B assay; type: functional
DU-145 = assay: Growth inhibition of human DU-145 cells by sulforhodamine B assay; type: functional
PC-3 = assay: Growth inhibition of human PC-3 cells by sulforhodamine B assay; type: functional
HeLa S3 = assay: Cytotoxicity against human HeLa S3 cells assessed as cell growth inhibition; type: functional, cell-based
[8] = target: Sarcoplasmic/endoplasmic reticulum calcium ATPase 1 (Oryctolagus cuniculus, UniProt P04191); assay: Inhibition of SERCA1a in rabbit Sarcoplasmic reticulum assessed as inhibition constant in presence of [gamma-32P]ATP and calcium ionophore A23187 by coupled enzyme assay; type: subcellular
[9] = Induction of apoptosis in rat Glial cell transformed with adenovirus 12 E1A incubated for 24 hrs by /Hoechst […] staining based flourescence microscopy; type: functional
NCI-H292 = assay: Cytotoxicity against human NCI-H292 cells assessed as reduction in cell viability incubated for 4 days by WST-1 assay; type: functional, cell-based; conditions: NCI-H292, 96 h
HeLa [10] = assay: Cytotoxicity against human HeLa cells by MTT assay; type: functional, cell-based
KB = assay: Cytotoxicity against human KB cells by MTT assay; type: functional, cell-based
K562 = assay: Cytotoxicity against human K562 cells by MTT assay; type: functional, cell-based
Lung NSCLC-N6 cell-line = assay: Cytotoxicity against human Lung NSCLC-N6 cell-line by MTT colorimetric assay; type: functional, cell-based
P388 = assay: Cytotoxicity against mouse P388 cells by MTT colorimetric assay; type: functional, cell-based
A2780 = assay: Cytotoxicity against human A2780 cells incubated for 48 hrs; type: functional, cell-based; conditions: A2780, 48 h

Sequence of Sarcoplasmic/endoplasmic reticulum calcium ATPase 1 (P04191 whole entry): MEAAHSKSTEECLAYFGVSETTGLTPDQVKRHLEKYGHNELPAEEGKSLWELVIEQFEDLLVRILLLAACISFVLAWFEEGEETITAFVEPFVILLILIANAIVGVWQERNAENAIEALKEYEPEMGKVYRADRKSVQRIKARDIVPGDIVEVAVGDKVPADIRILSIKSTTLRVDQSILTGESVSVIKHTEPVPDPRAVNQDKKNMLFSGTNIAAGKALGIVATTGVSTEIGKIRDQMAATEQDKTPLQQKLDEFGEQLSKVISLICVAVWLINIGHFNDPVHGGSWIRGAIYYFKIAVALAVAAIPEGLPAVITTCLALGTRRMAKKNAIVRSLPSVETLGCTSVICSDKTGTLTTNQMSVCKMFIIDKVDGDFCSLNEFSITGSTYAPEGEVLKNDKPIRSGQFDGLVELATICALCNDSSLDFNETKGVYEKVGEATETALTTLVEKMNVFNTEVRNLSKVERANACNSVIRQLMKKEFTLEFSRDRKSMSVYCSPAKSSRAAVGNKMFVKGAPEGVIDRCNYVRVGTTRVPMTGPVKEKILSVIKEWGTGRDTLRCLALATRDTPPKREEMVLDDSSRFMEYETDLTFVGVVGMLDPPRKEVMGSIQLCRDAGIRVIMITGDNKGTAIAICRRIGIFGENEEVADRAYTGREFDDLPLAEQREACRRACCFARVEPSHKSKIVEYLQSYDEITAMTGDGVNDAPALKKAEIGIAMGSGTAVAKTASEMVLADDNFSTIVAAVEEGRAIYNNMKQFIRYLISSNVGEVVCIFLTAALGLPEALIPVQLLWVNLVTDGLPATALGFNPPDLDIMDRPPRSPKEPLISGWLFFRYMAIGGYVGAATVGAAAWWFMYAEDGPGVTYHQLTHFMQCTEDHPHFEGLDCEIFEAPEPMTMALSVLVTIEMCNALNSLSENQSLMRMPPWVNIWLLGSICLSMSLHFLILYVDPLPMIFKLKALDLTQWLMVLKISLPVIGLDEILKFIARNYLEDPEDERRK

Q: Which IC50 (MCF7 [1]) does the source give for `CCCCCCCC[C@@H]1[C@H](O)[C@@H](O)[C@H](O)[C@H]2COC(=O)N12` here?
A: 22000 nM

Q: Which IC50 (HeLa [2]) does the source give for `CCCCCCCCCCCCCCCC(=O)OCc1cn([C@@H]2O[C@H](CO)[C@@H](O)[C@H](O)[C@H]2O)nn1` here?
A: 121000 nM

Q: Which Activity (HL-60) does the source give for `C[C@@H](N)[C@H](O)CCCCCCCCCCCCCCC(=O)CCCCCCC[C@@H](O)[C@@H](C)N` here?
A: 93%

Q: What does the source list for `C/C=C/C/C(C)=C\[C@H]1C/C=C/C=C/C[C@H](C)/C=C(\C)[C@@H](OC)C/C=C/[C@@H](O[C@@H]2O[C@H](CO)[C@@H](O)[C@H](OC)[C@H]2O)CC(=O)O1`?
A: GI50 [3]: 600 nM; GI50 [4]: 600 nM; GI50 [5]: 600 nM; GI50 (MCF7 [6]): 600 nM; GI50 [7]: 600 nM; GI50 (U-251): 600 nM; GI50 (SF-268): 600 nM; GI50 (SF-295): 600 nM; GI50 (SF-539): 600 nM; GI50 (SNB-75): 600 nM; GI50 (SNB-78): 600 nM; GI50 (HCC 2998): 600 nM; GI50 (KM12): 600 nM; GI50 (HT-29): 600 nM; GI50 (HCT-15): 600 nM; GI50 (HCT-116): 600 nM; GI50 (NCI-H23): 600 nM; GI50 (NCI-H226): 600 nM; GI50 (NCI-H522): 600 nM; GI50 (NCI-H460): 600 nM; GI50 (A549): 600 nM; GI50 (DMS-273): 600 nM; GI50 (LOX IMVI): 600 nM; GI50 (OVCAR-3): 600 nM; GI50 (OVCAR-4): 600 nM; GI50 (OVCAR-5): 600 nM; GI50 (OVCAR-8): 600 nM; GI50 (SK-OV-3): 600 nM; GI50 (RXF 631): 600 nM; GI50 (ACHN): 600 nM; GI50 (St-4): 600 nM; GI50 (MKN-1): 600 nM; GI50 (MKN-7): 600 nM; GI50 (MKN-28): 600 nM; GI50 (MKN-45): 600 nM; GI50 (MKN-74): 600 nM; GI50 (DU-145): 600 nM; GI50 (PC-3): 600 nM; IC50 (HeLa S3): 0.1 µg/mL (≈ 0.165 µM); Ki [8]: 19 nM

Q: Which results are given for `COC[C@@H](C[C@H]1O[C@@](O)([C@H](O)[C@@H]2C[C@H](OC)[C@@H](O)CC/C=C(C)/C=C/[C@@H](O[C@@H]3O[C@@H](C)[C@H](OC)[C@@H](O)[C@@H]3O)[C@H](C)/C=C(C)/C=C(C)/C=C(\C)C(=O)O2)[C@H](C)[C@@H](O)[C@H]1C)O[C@H]1C[C@](C)(O)[C@@H](O[C@H]2C[C@@H](OC)[C@H](O)[C@@H](C)O2)[C@H](C)O1`?
A: IC50 [9]: 0.011 µg/mL (≈ 0.00974 µM); EC50 (NCI-H292): < 50 nM

Q: Which results are given for `C/C=C(\C)[C@H](O)[C@H](C)/C=C(C)/C=C/C/C(C)=C/Cc1nc(OC)c(OC)c(OC2O[C@@H](C)[C@H](O)[C@@H](O)[C@H]2O)c1C` (stereo partly specified)?
A: IC50 (HeLa [10]): 2.8 µg/mL (≈ 4.98 µM); IC50 (KB): 3.8 µg/mL (≈ 6.76 µM); IC50 (K562): 4.6 µg/mL (≈ 8.19 µM)

Q: What does the source list for `CO[C@@H]1/C=C(\C)C[C@H](/C=C/C#C[C@H]2C[C@@H]2Cl)OC(=O)[C@@H](C)[C@]2(O)C[C@H](O[C@@H]3O[C@@H](C)[C@H](O)[C@@](C)(O)[C@H]3OC)[C@@H](C)[C@@H](O2)[C@@H]1C`?
A: IC50 (Lung NSCLC-N6 cell-line): 11.3 µg/mL (≈ 17.6 µM); IC50 (P388): 15.3 µg/mL (≈ 23.8 µM); IC50 (A2780): 20200 nM
